Results published in paper PMC12040169 (PLOS Biology, 2025).

Experiment: in vitro
Details: human, hela cells, % viability

| SMILES | viability at 28.5 h, 10 µM [%] | viability at 28.5 h, 10 µM (bulk resorufin, single well) [%] |
| --- | --- | --- |
| CCN(CC)CC(C)C(O)(c1ccc(Cl)cc1)c1ccc(Cl)cc1 (stereo not drawn) [CBK012146C] | 103 | – |
| O=C(NC1CCCN(CC(F)(F)F)C1=O)c1cnc(-c2ccncc2)s1 (stereo not drawn) [CBK306175] | 82.6 | – |
| CNCC1CCCN(Cc2cn(-c3ccc(Br)cc3)nc2C)C1 (stereo not drawn) [CBK304301C] | 99.7 | – |
| O=C(O)CC(Cc1ccccc1)c1ccc(Cl)cc1 (stereo not drawn) [CBK270231] | 89.6 | – |
| CCN(CC)C(=O)C1CCCN(C(=O)Nc2cccc(OC)c2)C1 (stereo not drawn) [CBK005159] | 92.9 | – |
| CN1CCCC(NC(=O)CCCOc2ccccc2F)C1 (stereo not drawn) [CBK282072] | 101 | – |
| CSc1nnc(CCCNc2cccc(C#N)n2)n1CC(C)C [CBK306449] | 96.8 | – |
| CCN1CCCC1CNC(=O)c1cc([N+](=O)[O-])c(N(C)C)cc1OC (stereo not drawn) [CBK262595] | 95.8 | – |
| CCn1nc(C)c(-c2cncn2CC(C)N2CCC(C)CC2)c1C (stereo not drawn) [CBK281593] | 103 | – |
| O=C(CN1C(=O)N2CCN=C2c2ccccc21)NC1CC1 [CBK283958] | 93.1 | – |
| N#CCCn1cc(C(=O)N2CCCCC2)c(-c2cccc(Br)c2)n1 [CBK306202] | 89.4 | – |
| Cc1nc(C2(O)CCCN(C3CCCC3)CC2)sc1COc1ccc(F)c(F)c1 (stereo not drawn) [CBK286259] | 89.7 | – |
| O=C(c1cccc2ncccc12)N1CCN(CC2CCOC2)CC1 (stereo not drawn) [CBK305140] | 94.3 | – |
| CSc1cc(C)c2c(c1)COC1(CCN(C(=O)Nc3c(C)noc3C)CC1)O2 [CBK060699] | – | 95.3 |
| Cc1cccnc1C(NC(=O)C1CCN(Cc2ccoc2)CC1)c1ccc(Cl)cc1 (stereo not drawn) [CBK148227] | 102 | – |
| Cc1nn(C)c(Cl)c1S(=O)(=O)NCCc1c[nH]c2ccccc12 [CBK067310] | 85.2 | – |
| N#Cc1ccc2nc([C@H]3CCN(C(=O)C4CCCCC4)C3)[nH]c2c1 [CBK289380] | 90 | – |
| Cc1ccsc1CCNC(=O)C1(Oc2cccnc2C)CCNCC1 [CBK307374] | 84.2 | – |
| O=[N+]([O-])c1cc(/C=N/Nc2nc(N3CCOCC3)nc(N3CCOCC3)n2)c(O)c([N+](=O)[O-])c1 [CBK261237] | 105 | – |
| Cc1nn(C)c(N2CCNCC2)c1NC(=O)Cc1cn(C)c2ccccc12 [CBK050254T] | 94.5 | – |
| O=c1cc(CN2CCCc3ccccc32)[nH]c(=O)[nH]1 [CBK138331] | 95.1 | – |

| SMILES | viability at 28.5 h, 10 µM [%] | viability at 28.5 h, 10 µM (bulk resorufin, single well) [%] |
| --- | --- | --- |
| CCN(CC)C(=O)Cc1cc(C(=O)O)c2ccccc2n1 [CBK286942] | 104 | – |
| CC1=NNC(=O)C1CCC(=O)N/N=C/C(Br)=C/c1ccccc1 (stereo not drawn) [CBK262929] | 100 | – |
| O=C(CSc1nnc(CN2CCOCC2)n1-c1ccc(Cl)cc1)N1CCc2ccccc21 [CBK269008] | 97.9 | – |
| OC(CSc1ccccc1)CN1CCN(C(c2ccccc2)c2ccccc2)CC1 (stereo not drawn) [CBK074683] | 91.3 | – |
| COc1ccc(-c2noc(CN(C)C(=O)c3cccs3)n2)cc1 [CBK270286] | 89.6 | – |
| COCC(=O)N[C@H]1C[C@@H](Cc2cc(C(C)(C)C)on2)C1(C)C [CBK289244] | 106 | – |
| Nc1n[nH]c(SCC(=O)Nc2ccc(Br)cc2Cl)n1 [CBK267875] | 95.3 | – |
| COc1cc2c(cc1OC)C(C)N(C(=O)Nc1ccc3c(c1)OCCO3)CC2 (stereo not drawn) [CBK086204] | 94.8 | – |
| CC(O)CN(Cc1ccc(-n2cnc3ccccc32)cc1)Cc1ccc2c(c1)OCO2 (stereo not drawn) [CBK286475] | 101 | – |
| COc1cc2c(cc1OC)C(CCCC#N)=[N+](C)C(C)(C)C2 [CBK008807I] | 97.9 | – |
| O=C(O)c1ccc(CN2C[C@H](O)C[C@H]2c2nc(-c3ccccn3)no2)cc1 [CBK288869] | 90 | – |
| CC(C)NS(=O)(=O)c1ccc(NC(=O)COc2ccc3ccccc3c2Br)cc1 [CBK267920] | 94.3 | – |
| C=CCSc1nnc(CSc2nc3sc4c(c3c(=O)[nH]2)CCCC4)n1-c1ccccc1 [CBK263341] | 94.4 | – |
| CC(=O)Nc1ccc(S(=O)(=O)N2CCN(S(=O)(=O)N(C)C)CC2)cc1 [CBK266545] | 95.9 | – |
| CC1(C)NC(=O)N(CC(O)COc2cc3ccccc3cc2C(=O)N2CCCCC2)C1=O (stereo not drawn) [CBK019029] | 120 | – |
| Cc1csc2c(C3CCCN(C(=O)C4CC4)C3)nc(C)n12 (stereo not drawn) [CBK285212] | 87.1 | – |
| O=C(Nc1ccccc1[N+](=O)[O-])C(c1ccccc1)N1CCOCC1 (stereo not drawn) [CBK269390] | 94 | – |
| Cc1ccc2[nH]cc(CCNC(=O)c3cccc(NC(=O)c4ccccc4)c3)c2c1 [CBK269235] | 86.6 | – |
| O=C(CCCN1C(=O)c2cccc3cccc(c23)C1=O)NCc1cccnc1 [CBK262190] | 73.9 | – |
| CC(=O)Nc1ccc(S(=O)(=O)NC2(C(F)(F)F)NC(=O)N(c3ccc(Cl)cc3)C2=O)cc1 (stereo not drawn) [CBK267689] | 95.7 | – |
| CC(C)c1ccc(NC(=O)C2=NNC(=O)CC2)cc1 [CBK057421] | 96.5 | – |

| SMILES | viability at 28.5 h, 10 µM [%] | viability at 28.5 h, 10 µM (bulk resorufin, single well) [%] |
| --- | --- | --- |
| CN(Cc1ccsc1)C(=O)c1cccc(S(=O)(=O)NC(C)(C)C)c1 [CBK305425] | 81.2 | – |
| O=C(NCCc1cccs1)Nc1cc(F)ccc1F [CBK043935] | 113 | – |
| CNc1cc(N2CCN(S(=O)(=O)N(C)C)CC2)ccc1[N+](=O)[O-] [CBK269311] | 89.8 | – |
| Cc1cc(C)c2c(NCc3ccc(C)o3)n[nH]c2n1 [CBK284621] | 94.9 | – |
| Cc1ccc(C(=O)NCCN2CCOCC2)cc1S(=O)(=O)N1CCCCC1 [CBK267329] | 86.2 | – |
| O=C1NCCN(C(=O)c2[nH]nc3c2CCCCC3)C1Cc1ccccc1-c1ccc(F)cc1 (stereo not drawn) [CBK285831] | 98.1 | – |
| CS(=O)(=O)N(CC(=O)N1CCN(Cc2ccc3c(c2)OCO3)CC1)c1cccc(C(F)(F)F)c1 [CBK265329] | 77.7 | – |
| O=C(CCCC(=O)N1CCCC1)N1CCCC1 [CBK006992] | 108 | – |
| CCn1ncc(CN2CCCCCC2c2cc(C)on2)c1C (stereo not drawn) [CBK282141] | 91.7 | – |
| COc1ccc2c(C)nc(NC3=NC(c4ccccc4)CC(=O)N3)nc2c1 (stereo not drawn) [CBK270230] | 85.4 | – |
| COc1cc(CN2CCN(C(=O)c3cccc(F)c3)CC2)cc(OC)c1O [CBK074633] | 95.2 | – |
| CC(C)c1ccc(/C=C2\CCCc3c2nc2ccccc2c3C(=O)O)cc1 [CBK299777] | 91.2 | – |
| COc1cccc(N2C(=O)/C(=C/c3ccc(O)c(O)c3)SC2=S)c1 [CBK263096] | 94.7 | – |
| O=C(C1CC1)N1CCC(Cn2nc(-c3cccs3)ccc2=O)CC1 [CBK284039] | 101 | – |
| O=C(Nc1ccccc1Cl)N1CCCCC1CO (stereo not drawn) [CBK156180] | 91.9 | – |
| CC(NC(=O)CCc1cscn1)c1nc(-c2ccncc2)cs1 (stereo not drawn) [CBK305260] | 77.6 | – |
| Cc1ccc(C2(C(=O)NC(C)c3ccccn3)CCOCC2)cc1 (stereo not drawn) [CBK281903] | 90.5 | – |
| NC(=O)c1cccc(-c2cnc(N)c(N3CCC[C@@H]3CO)n2)c1 [CBK063458] | 99.5 | – |
| CCc1nc(NC(=O)c2ccnc(Cl)c2)sc1C [CBK298287] | 101 | – |
| COc1ccc(CCNC(=O)N(C)C2CCN(C)C2)cc1OC (stereo not drawn) [CBK156007] | 97.9 | – |
| CC(=O)NC[C@H]1CN(c2ccc3c(c2)CCN(C(C)=O)CC3)C(=O)O1 [CBK018491] | 86.6 | – |
